From US6525001B1, “Substituted pyrimidine and pyridine herbicides” (Mid-American Commercialization Corporation, priority 1997, dated 2003)

Columns and labels:
Assay type in all cases: in vivo
[1] = test system: bedstraw (Galium aparine); assay: Test B pre-/postemergence; parameters: key: 0 is no effect; 10 is complete control; settings: for Bedstraw plant response rating: Preemergence
Summary of the method: (§1)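 Response scores run from 0, meaning no effect, to 10, meaning complete control, assigned by eye relative to controls twelve to sixteen days after spraying. Treatment was both preemergence on planted seed and postemergence on plants at the 1- to 4-leaf stage.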

[2] = test system: blackgrass (Alopecurus myosuroides); assay: Test B pre-/postemergence; parameters: key: 0 is no effect; 10 is complete control; settings: for Blackgrass plant response rating: Preemergence
Summary of the method: as §1

[3] = test system: broadleaf signalgrass (Brachiaria decumbens); assay: Test B pre-/postemergence; parameters: key: 0 is no effect; 10 is complete control; settings: for B. signalgrass plant response rating: Preemergence
Summary of the method: as §1

[4] = test system: cocklebur (Xanthium strumarium); assay: Test B pre-/postemergence; parameters: key: 0 is no effect; 10 is complete control; settings: for Cocklebur plant response rating: Preemergence
Summary of the method: as §1

corn (Zea mays) = assay: Test B pre-/postemergence; parameters: key: 0 is no effect; 10 is complete control; settings: for Corn plant response rating: Preemergence
Summary of the method: as §1

[5] = test system: crabgrass (Digitaria sanguinalis); assay: Test B pre-/postemergence; parameters: key: 0 is no effect; 10 is complete control; settings: for Crabgrass plant response rating: Preemergence
Summary of the method: as §1

[6] = test system: giant foxtail (Setaria faberii); assay: Test B pre-/postemergence; parameters: key: 0 is no effect; 10 is complete control
Summary of the method: as §1

[7] = test system: momingglory (Ipomoea hederacea); assay: Test B pre-/postemergence; parameters: key: 0 is no effect; 10 is complete control
Summary of the method: as §1

[8] = test system: pigweed (Amaranthus retroflexus); assay: Test B pre-/postemergence; parameters: key: 0 is no effect; 10 is complete control
Summary of the method: as §1

[9] = test system: purple nutsedge (Cyperus rotundus); assay: Test B pre-/postemergence; parameters: key: 0 is no effect; 10 is complete control; settings: Postemergence
Summary of the method: as §1

rape (Brassica napus) = assay: Test B pre-/postemergence; parameters: key: 0 is no effect; 10 is complete control
Summary of the method: as §1

soybean (Glycine max) = assay: Test B pre-/postemergence; parameters: key: 0 is no effect; 10 is complete control
Summary of the method: as §1

[10] = test system: sugar beet (Beta vulgaris); assay: Test B pre-/postemergence; parameters: key: 0 is no effect; 10 is complete control
Summary of the method: as §1

[11] = test system: velvetleaf (Abutilon theophrasti); assay: Test B pre-/postemergence; parameters: key: 0 is no effect; 10 is complete control
Summary of the method: as §1

[12] = test system: wheat (Triticum aestivum); assay: Test B pre-/postemergence; parameters: key: 0 is no effect; 10 is complete control
Summary of the method: as §1

wild oat (Avena fatua) = assay: Test B pre-/postemergence; parameters: key: 0 is no effect; 10 is complete control
Summary of the method: as §1

[13] = test system: bamyardgrass (Echinochloa crus-galli); assay: Test B flood test
Summary of the method: (§2)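 Each value is a visual injury score relative to controls, with 10 meaning complete control and 0 no effect. Evaluation took place twelve to sixteen days after the 2-leaf-stage plants were treated and kept in the greenhouse.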

[14] = test system: duck salad (Heteranthera limosa); assay: Test B flood test
Summary of the method: as §2

rice (Oryza sativa) = assay: Test B flood test
Summary of the method: as §2

[15] = test system: smallflower flatsedge (Cyperus difformis); assay: Test B flood test
Summary of the method: as §2

[16] = Rate 250 g/ha, Postemergence (so in the source)
[17] = Rate 62 g/ha, Postemergence (flood test)
[18] = Rate 125 g/ha, Postemergence, flood test
[19] = Rate 250 g/ha, Postemergence (flood test species)
[20] = Rate 125 g/ha, Postemergence section (flood test species)

## CCc1cnc(-n2cnc(C(F)(F)F)n2)nc1Cc1cccc(OC(F)(F)F)c1 [Compound 50]
[1]; Rate 62 g/ha, Postemergence
  Plant response rating, Bedstraw: 9
[1]; Rate 62 g/ha
  Bedstraw plant response rating: 2
[1]; Rate 125 g/ha, Postemergence
  Plant response rating, Bedstraw: 10
[1]; Rate 125 g/ha
  Bedstraw plant response rating: 7
[1]; [16]
  Plant response rating, Bedstraw: 9
[2]; Rate 62 g/ha, Postemergence
  Plant response rating, Blackgrass: 2
[2]; Rate 62 g/ha
  Blackgrass plant response rating: 3
[2]; Rate 125 g/ha, Postemergence
  Plant response rating, Blackgrass: 5
[2]; Rate 125 g/ha
  Blackgrass plant response rating: 5
[2]; Rate 250 g/ha, Postemergence
  Plant response rating, Blackgrass: 8
[2]; [16]
  Plant response rating, Blackgrass: 10
[3]; Rate 62 g/ha, Postemergence
  Plant response rating, B. signalgrass: 1
[3]; Rate 62 g/ha
  B. signalgrass plant response rating: 0
[3]; Rate 125 g/ha, Postemergence
  Plant response rating, B. signalgrass: 1
[3]; Rate 125 g/ha
  B. signalgrass plant response rating: 1
[3]; Rate 250 g/ha, Postemergence
  Plant response rating, B. signalgrass: 2
[3]; Rate 250 g/ha, Postemergence as printed in head r139 (second section for compounds 26-50)
  Plant response rating, B. signalgrass: 1
[4]; Rate 62 g/ha, Postemergence
  Plant response rating, Cocklebur: 4
[4]; Rate 62 g/ha
  Cocklebur plant response rating: 0
[4]; Rate 125 g/ha, Postemergence
  Plant response rating, Cocklebur: 4
[4]; Rate 125 g/ha
  Cocklebur plant response rating: 0
[4]; Rate 250 g/ha, Postemergence
  Plant response rating, Cocklebur: 7
[4]; [16]
  Plant response rating, Cocklebur: 0
Corn (Zea mays); Rate 62 g/ha, Postemergence
  Plant response rating, Corn: 1
Corn (Zea mays); Rate 62 g/ha
  Corn plant response rating: 0
Corn (Zea mays); Rate 125 g/ha, Postemergence
  Plant response rating, Corn: 2
Corn (Zea mays); Rate 125 g/ha
  Corn plant response rating: 0
Corn (Zea mays); Rate 250 g/ha, Postemergence
  Plant response rating, Corn: 2
Corn (Zea mays); [16]
  Plant response rating, Corn: 0
[5]; Rate 62 g/ha, Postemergence
  Plant response rating, Crabgrass: 1
[5]; Rate 62 g/ha
  Crabgrass plant response rating: 6
[5]; Rate 125 g/ha, Postemergence
  Plant response rating, Crabgrass: 2
[5]; Rate 125 g/ha
  Crabgrass plant response rating: 9
[5]; Rate 250 g/ha, Postemergence
  Plant response rating, Crabgrass: 6
[5]; [16]
  Plant response rating, Crabgrass: 9
[6]; Rate 62 g/ha, Postemergence
  Plant response rating, Giant foxtail: 1
[6]; Rate 62 g/ha, Preemergence
  Giant foxtail plant response rating: 2
[6]; Rate 125 g/ha, Postemergence
  Giant foxtail plant response rating: 2
[6]; Rate 125 g/ha, Preemergence
  Giant foxtail plant response rating: 7
[6]; Rate 250 g/ha, Postemergence
  Plant response rating, Giant foxtail: 2
[6]; [16]
  Plant response rating, Giant foxtail: 8
[7]; Rate 62 g/ha, Postemergence
  Plant response rating, Morningglory: 3
[7]; Rate 62 g/ha, Preemergence
  Morningglory plant response rating: 1
[7]; Rate 125 g/ha, Postemergence
  Morningglory plant response rating: 3
[7]; Rate 125 g/ha, Preemergence
  Morningglory plant response rating: 3
[7]; Rate 250 g/ha, Postemergence
  Plant response rating, Morningglory: 3
[7]; [16]
  Plant response rating, Morningglory: 4
[8]; Rate 62 g/ha, Postemergence
  Plant response rating, Redroot pigweed: 8
[8]; Rate 62 g/ha, Preemergence
  Redroot pigweed plant response rating: 7
[8]; Rate 125 g/ha, Postemergence
  Redroot pigweed plant response rating: 8
[8]; Rate 125 g/ha, Preemergence
  Redroot pigweed plant response rating: 9
[8]; Rate 250 g/ha, Postemergence
  Plant response rating, Redroot pigweed: 9
[8]; [16]
  Plant response rating, Redroot pigweed: 9
[9]; Rate 62 g/ha
  Plant response rating, Nutsedge: 2
[9]; Rate 125 g/ha
  Nutsedge plant response rating: 2
[9]; Rate 250 g/ha
  Plant response rating, Nutsedge: 2
Rape (Brassica napus); Rate 62 g/ha, Postemergence
  Plant response rating, Rape: 9
Rape (Brassica napus); Rate 62 g/ha, Preemergence
  Rape plant response rating: 6
Rape (Brassica napus); Rate 125 g/ha, Postemergence
  Rape plant response rating: 10
Rape (Brassica napus); Rate 125 g/ha, Preemergence
  Rape plant response rating: 10
Rape (Brassica napus); Rate 250 g/ha, Postemergence
  Plant response rating, Rape: 10
Rape (Brassica napus); [16]
  Plant response rating, Rape: 10
Soybean (Glycine max); Rate 62 g/ha, Postemergence
  Plant response rating, Soybean: 6
Soybean (Glycine max); Rate 62 g/ha, Preemergence
  Soybean plant response rating: 1
Soybean (Glycine max); Rate 125 g/ha, Postemergence
  Soybean plant response rating: 7
Soybean (Glycine max); Rate 125 g/ha, Preemergence
  Plant response rating, Soybean: 1
Soybean (Glycine max); Rate 250 g/ha, Postemergence
  Plant response rating, Soybean: 7
Soybean (Glycine max); [16]
  Plant response rating, Soybean: 1
[10]; Rate 62 g/ha, Postemergence
  Plant response rating, Sugarbeets: 7
[10]; Rate 62 g/ha, Preemergence
  Sugarbeets plant response rating: 6
[10]; Rate 125 g/ha, Postemergence
  Sugarbeets plant response rating: 8
[10]; Rate 125 g/ha, Preemergence
  Plant response rating, Sugarbeets: 6
[10]; Rate 250 g/ha, Postemergence
  Plant response rating, Sugarbeets: 10
[10]; [16]
  Plant response rating, Sugarbeets: 10
[11]; Rate 62 g/ha, Postemergence
  Plant response rating, Velvetleaf: 6
[11]; Rate 62 g/ha, Preemergence
  Velvetleaf plant response rating: 4
[11]; Rate 125 g/ha, Postemergence
  Velvetleaf plant response rating: 7
[11]; Rate 125 g/ha, Preemergence
  Plant response rating, Velvetleaf: 7
[11]; Rate 250 g/ha, Postemergence
  Plant response rating, Velvetleaf: 8
[11]; [16]
  Plant response rating, Velvetleaf: 9
[12]; Rate 62 g/ha, Postemergence
  Wheat plant response rating: 3
[12]; Rate 62 g/ha, Preemergence
  Wheat plant response rating: 1
[12]; Rate 125 g/ha, Postemergence
  Wheat plant response rating: 3
[12]; Rate 125 g/ha, Preemergence
  Plant response rating, Wheat: 2
[12]; Rate 250 g/ha, Postemergence
  Plant response rating, Wheat: 4
[12]; [16]
  Plant response rating, Wheat: 2
Wild oat (Avena fatua); Rate 62 g/ha, Postemergence
  Wild oats plant response rating: 2
Wild oat (Avena fatua); Rate 62 g/ha, Preemergence
  Wild oats plant response rating: 3
Wild oat (Avena fatua); Rate 125 g/ha, Postemergence
  Wild oats plant response rating: 3
Wild oat (Avena fatua); Rate 125 g/ha, Preemergence
  Plant response rating, Wild oats: 4
Wild oat (Avena fatua); Rate 250 g/ha, Postemergence
  Plant response rating, Wild oats: 4
Wild oat (Avena fatua); [16]
  Plant response rating, Wild oats: 8
[13]; [17]
  Plant response rating, Barnyardgrass: 3
[13]; [18]
  Plant response rating, Barnyardgrass: 4
[13]; [19]
  Plant response rating, Barnyardgrass: 4
[14]; [17]
  Plant response rating, Ducksalad: 4
[14]; [18]
  Plant response rating, Ducksalad: 5
[14]; [19]
  Plant response rating, Ducksalad: 8
Rice (Oryza sativa); [17]
  Plant response rating, Rice: 2
Rice (Oryza sativa); [20]
  Rice plant response rating: 3
Rice (Oryza sativa); [19]
  Plant response rating, Rice: 4
[15]; [17]
  Plant response rating, S. Flatsedge: 6
[15]; [20]
  S. Flatsedge plant response rating: 8
[15]; [19]
  Plant response rating, S. Flatsedge: 9
